Data as given in patent publication US11414403B2, “Antibacterial compound and uses of same” (BIOMÉRIEUX, priority 2017, dated 2022).
Values after ≈ are worked out from the molar mass of the structure shown.

How the values were obtained:
Assay in all cases: MIC by agar dilution method
Format in all cases: cell-based
[1] = tested on: Staphylococcus aureus (MRSA) NCTC 11939; conditions: 22 hours at 37° C.
Protocol: (§1) The minimum inhibitory concentrations (MICs) of L-pyroglutamyl-L-1-aminoethyltetrazole (12) for 13 Gram-negative strains of bacteria and 8 Gram-positive strains of bacteria were determined using an agar dilution method described by Andrews J M. 2001 (“Determination of minimum inhibitory concentrations[…]; J. Antimicrob. Chemother. (2001) 48 Suppl. 1:5-16). Said method required the use of a defined antagonist-free medium (without peptone), prepared in the way previously described with the inclusion of 2% saponin-lysed horse blood, 25.0 μg/ml of NAD and 25.0 μg/ml of hemin (Atherton et al., 1979; “Phosphonopeptides as antibacterial agents: rationale, chemistry, and structure-activity relationships[…]; Antimicrob. Agents Chemother. (1979) 15:677-683). […] All the isolates were prepared at a density equivalent to […] in sterile deionized water using a densitometer (approximately 1.5×10^8 CFU/ml), then diluted to […]. A 1 μl aliquot of each diluted suspension was then placed on dishes with a multispot inoculator to give the recommended final inoculation of 10 000 CFU/spot (Andrews, 2001. “Determination of minimum inhibitory concentrations”; J. Antimicrob. Chemother. 48 Suppl 1:5-16). All the dishes (including the antimicrobial-free controls) were incubated for 22 hours at 37° C. All the tests were carried out on at least two independent replicates in order to examine the reproducibility.
(§2) The bacterial isolates tested all come from international collections, the American Type Culture Collection (ATCC) and the National Collection of Type Cultures (NCTC).

[2] = tested on: Streptococcus agalactiae NCTC 8181; conditions: NCTC8181, 22 hours at 37° C.
Protocol: as §1, §2

[3] = tested on: Klebsiella pneumoniae NCTC 9528
Protocol: as §1, §2

[4] = tested on: Staphylococcus aureus (MSSA) NCTC 6571; conditions: 22 hours at 37° C.
Protocol: as §1, §2

[5] = tested on: Burkholderia cepacia ATCC 25416; conditions: ATCC25416, 22 hours at 37° C.
Protocol: as §1, §2

[6] = tested on: Escherichia coli NCTC 12241; conditions: NCTC12241, 22 hours at 37° C.
Protocol: as §1, §2

[7] = tested on: Escherichia coli NCTC 10418; conditions: NCTC10418, 22 hours at 37° C.
Protocol: as §1, §2

[8] = tested on: Salmonella enteritidis NCTC 74; conditions: Salmonella enterica, 22 hours at 37° C.
Protocol: as §1, §2

[9] = tested on: Enterococcus faecalis NCTC 775
Protocol: as §1, §2

[10] = tested on: Listeria monocytogenes NCTC 11994; conditions: NCTC11994, 22 hours at 37° C.
Protocol: as §1, §2

[11] = tested on: Bacillus subtilis NCTC 9372
Protocol: as §1, §2

[12] = tested on: Providencia rettgeri NCTC 7475; conditions: NCTC7475, 22 hours at 37° C.
Protocol: as §1, §2

[13] = tested on: Yersinia enterocolitica NCTC 11176
Protocol: as §1, §2

[14] = tested on: Acinetobacter baumannii ATCC 19606; conditions: ATCC19606, 22 hours at 37° C.
Protocol: as §1, §2

[15] = tested on: Enterobacter cloacae NCTC 11936; conditions: NCTC11936, 22 hours at 37° C.
Protocol: as §1, §2

[16] = tested on: Salmonella typhimurium NCTC 74; conditions: Salmonella enterica, 22 hours at 37° C.
Protocol: as §1, §2

[17] = tested on: Salmonella enteritidis NCTC 6676; conditions: Salmonella enterica, 22 hours at 37° C.
Protocol: as §1, §2

[18] = tested on: Staphylococcus epidermidis NCTC 11047; conditions: NCTC11047, 22 hours at 37° C.
Protocol: as §1, §2

[19] = tested on: Enterococcus faecium NCTC 7171
Protocol: as §1, §2

[20] = tested on: Serratia marcescens NCTC 10211
Protocol: as §1, §2

[21] = tested on: Pseudomonas aeruginosa NCTC 10662; conditions: NCTC10662, 22 hours at 37° C.
Protocol: as §1, §2

[22] = at very low concentrations, of about 2 mg/l, enterococci

In the case of `C[C@H](NC(=O)[C@@H]1CCC(=O)N1)c1nnn[nH]1` [compound 12, L-pyroglutamyl-L-1-aminoethyltetrazole], the MIC [1] was greater than 128 µg/mL, the MIC [2] was greater than 128 µg/mL and the “Growth at various concentrations (mg/l)” value ([3]; 4 mg/l, Klebsiella pneumoniae NCTC 9528) was “Tr”. The “antibacterial activity (in words)” value ([3]; Klebsiella pneumoniae) was “highly inhibitory”, the MIC ([3]; NCTC9528, Klebsiella pneumoniae NCTC 9528, 22 hours at 37° C.) was 8 µg/mL (≈ 35.7 µM) and the MIC [4] was greater than 128 µg/mL. It also gave an MIC [5] greater than 128 µg/mL, an MIC [6] greater than 128 µg/mL and an MIC [7] greater than 128 µg/mL. For the same compound, the MIC [8] was greater than 128 µg/mL, the “antibacterial activity (in words)” value ([9]; Enterococcus faecalis) was “highly inhibitory” and the MIC ([9]; NCTC775, Enterococcus faecalis NCTC 775, 22 hours at 37° C.) was 2 µg/mL (≈ 8.92 µM). For the same compound, the “inhibition specificity (in words)” value [9, 22] was “excellent inhibition specificity for enterococci”, the MIC [10] was greater than 128 µg/mL and the “antibacterial activity (in words)” value ([11]; Bacillus subtilis) was “highly inhibitory”. For the same compound, the MIC ([11]; NCTC9372, Bacillus subtilis NCTC 9372, 22 hours at 37° C.) was 64 µg/mL (≈ 285 µM), the MIC [12] was greater than 128 µg/mL and the “Growth at various concentrations (mg/l)” value ([13]; 2 mg/l, Yersinia enterocolitica NCTC 11176) was “Tr”. The MIC ([13]; NCTC11176, Yersinia enterocolitica NCTC 11176, 22 hours at 37° C.) was 4 µg/mL (≈ 17.8 µM), the “antibacterial activity (in words)” value ([13]; Yersinia enterocolitica) was “highly inhibitory” and the MIC [14] was greater than 128 µg/mL. The MIC [15] was greater than 128 µg/mL, the MIC [16] was greater than 128 µg/mL and the MIC [17] was greater than 128 µg/mL. For the same compound, the MIC [18] was greater than 128 µg/mL, the “antibacterial activity (in words)” value ([19]; Enterococcus faecium) was “highly inhibitory” and the MIC ([19]; NCTC7171, Enterococcus faecium NCTC 7171, 22 hours at 37° C.) was 2 µg/mL (≈ 8.92 µM). For the same compound, the “inhibition specificity (in words)” value [19, 22] was “excellent inhibition specificity for enterococci”, the MIC ([20]; NCTC10211, Serratia marcescens NCTC 10211, 22 hours at 37° C.) was 8 µg/mL (≈ 35.7 µM) and the “antibacterial activity (in words)” value ([20]; Serratia marcescens) was “highly inhibitory”. It also gave an MIC [21] greater than 128 µg/mL.
